A melting point compilation (Tetko et al.)

| SMILES | melting point |
| --- | --- |
| O=Cc1cnn(Cc2ccccc2Cl)c1 | 54 to 56 °C |
| Cc1cc(Cl)c(C#N)c(C)n1 | 65 to 67 °C |
| Cc1c(Br)cc(S(C)(=O)=O)cc1C(=O)O | 134 to 136 °C |
| NC(=NO)c1ccccc1OCc1ccccc1 | 120 to 122 °C |
| CN(c1ccc(F)cc1)S(=O)(=O)c1ccc(Cl)c(C(=O)O)c1 | 174 to 176 °C |
| CC1(CCc2ccccc2)NC(=O)NC1=O (stereo not drawn) | 179 to 181 °C |
| Cc1nc(S)n(C2CCCCC2)c1C | 218 to 220 °C |
| C#CCOc1c(Cl)cc(C=O)cc1OC | 106 to 108 °C |
| OC(C1CCCCN1)C(F)(F)F (stereo not drawn) | 94 to 96 °C |
| CN(C)S(=O)(=O)CCC(=O)O | 121 to 123 °C |
| O=C(O)/C=C/c1ccc(N2CCCS2(=O)=O)cc1 | 252 to 254 °C |
| Cc1ccc(CNCc2ccc(C)n2C)n1C | 61 to 63 °C |
| O=c1cc(-c2ccccc2)c2cc(Cl)c(O)cc2o1 | 260 to 262 °C |
| Cc1nc(-c2ccc(C(C)N)cc2)cs1 (stereo not drawn) | 74 to 76 °C |
| O=C(O)C1(c2ccccc2F)CCCC1 | 106 to 108 °C |
| Cn1c(=O)ccn(CC(=O)O)c1=O | 240 to 242 °C |
| COC(=O)NCC(=O)O | 93 to 95 °C |
| Cc1nc2c(cnn2C(C)C)cc1C(=O)O | 166 to 168 °C |
| BrCc1cccc2ccccc12 | 49 to 51 °C |
| OCCc1nc2ccccc2s1 | 40 to 44 °C |
| Nc1cc(-c2ccoc2)nn1-c1ccccc1 | 129 to 131 °C |
| Fc1cccc(-c2nnc(CCl)o2)c1 | 65 to 67 °C |
| Cc1ccc(F)c(-n2cc(O)c(C(=O)O)n2)c1 | 201 to 203 °C |
| Cc1cccc(NC(=O)Nc2cccc(CN)c2)c1 | 163 to 165 °C |

| SMILES | melting point |
| --- | --- |
| Cc1ccc(C2OCCCC2C(=O)O)cc1 (stereo not drawn) | 126 to 128 °C |
| O=C(Nc1cccc(Br)c1)C1CCNCC1 | 178 to 180 °C |
| NNC(=O)Cc1ccncc1 | 91 to 93 °C |
| Cc1nc(CNc2ccc(F)cc2)cs1 | 76 to 78 °C |
| CNC1CCS(=O)(=O)c2ccc(Br)cc21 (stereo not drawn) | 108 to 110 °C |
| Cc1nnc(S)n1C | 112 to 115 °C |
| O=S(=O)(c1cccc(-c2nnc(S)n2Cc2ccc(F)cc2)c1)N1CCOCC1 | 231 to 233 °C |
| O=Cc1cn(-c2ccc(F)c(Cl)c2)nn1 | 148 to 150 °C |
| COc1ccc(CCCCC(=O)O)cc1 | 112 to 114 °C |
| CC(C)(C)Cc1nc(-c2cccc(C(=O)O)c2)no1 | 160 to 162 °C |
| CC(C)n1ncc2cc(S(N)(=O)=O)ccc21 | 168 to 170 °C |
| O=C(O)c1cc(S(=O)(=O)Nc2ccc(Br)cc2)ccc1Cl | 217 to 219 °C |
| NC(=O)c1cncs1 | 194 to 196 °C |
| O=C(Nc1ccccc1)c1ccc(CBr)cc1 | 179 to 181 °C |
| CNC(=O)c1n[nH]c(=O)c2ccccc12 | 283 to 285 °C |
| OC1(Cc2cccc(F)c2)CCNC1 (stereo not drawn) | 59 to 61 °C |
| O=C(c1ccc(F)cc1)c1ncccn1 | 128 to 130 °C |
| O=C(O)C1(C(=O)NC2CC2)CC1 | 145 to 147 °C |
| N#Cc1ccccc1N1CCOCC1 | 48 to 50 °C |
| Cc1cc(C)c(S(N)(=O)=O)cc1C | 179 to 181 °C |
| CSc1ccncc1N | 78 to 80 °C |
| Cc1noc(C)c1S(=O)(=O)N1CCCC1C(=O)O (stereo not drawn) | 133 to 137 °C |
| O=C(O)CCCc1ccc2ccccc2c1 | 91 to 93 °C |
| CN(C)S(=O)(=O)c1ccc(NC(=O)CCCl)cc1 | 159 to 161 °C |

| SMILES | melting point |
| --- | --- |
| Cn1cc(C(=O)O)c(C2CCCCC2)n1 | 157 to 159 °C |
| CCOC(=O)c1c(-c2ccc(C)s2)csc1N | 93 to 95 °C |
| Cc1ccc(S(=O)(=O)Nc2cc(Cl)ccc2O)cc1 | 189 to 191 °C |
| O=C(O)c1cnc(-c2ccccc2)s1 | 187 to 189 °C |
| N#CCS(=O)(=O)c1cc(Cl)ccc1Cl | 114 to 116 °C |
| O=C(O)c1ccc(OCC(=O)C2CC2)cc1 | 157 to 159 °C |
| O=C(NC(CO)C(=O)O)c1cccc(Br)c1 (stereo not drawn) | 140 to 142 °C |
| Cc1cccc(CC(N)=S)c1 | 75 to 77 °C |
| CC(=O)N1CCc2cc(NC(=O)CCl)ccc21 | 233 to 235 °C |
| Cc1ccc(C(=O)O)c(Sc2ccccc2)n1 | 169 to 171 °C |
| Cc1c[nH]c(=O)n1-c1ccc(C#N)cc1 | 230 to 232 °C |
| O=C(NC1CCOCC1)c1ccc(Cl)nn1 | 152 to 154 °C |
| CSC(C(=O)O)C(C)(C)C (stereo not drawn) | 83 to 85 °C |
| O=C1NCCc2c(Br)cccc21 | 109 to 111 °C |
| NNC(=O)Cc1nc(-c2ccccc2)cs1 | 135 to 140 °C |
| N#Cc1cc[nH]c1 | 55 to 57 °C |
| O=C(Nc1ccccc1[N+](=O)[O-])c1ccc2ccccc2n1 | 73 to 75 °C |
| O=C(O)/C=C/c1cc(C(F)(F)F)ccc1Cl | 147 to 149 °C |
| CC(C)(C)NS(=O)(=O)c1cc(C(=O)O)ccc1F | 182 to 184 °C |
| Cc1ccc(C(=O)O)cc1S(C)(=O)=O | 209 to 211 °C |
| Cc1nn(-c2ccc(F)cc2F)c(C)c1C=O | 129 to 131 °C |
| O=C(O)CNS(=O)(=O)C1CCS(=O)(=O)C1 (stereo not drawn) | 306 to 308 °C |
| CN(C(N)=O)c1ccccc1 | 75 to 77 °C |
| O=C1COc2c(Br)cc(Cl)cc21 | 139 to 141 °C |

| SMILES | melting point |
| --- | --- |
| CC1CN(c2ccc(N)cc2C(F)(F)F)CC(C)O1 (stereo not drawn) | 122 to 124 °C |
| COC(=O)c1c[nH]c(C)n1 | 136 to 138 °C |
| CCS(=O)(=O)N1CCCC(C(=O)O)C1 (stereo not drawn) | 59 to 61 °C |
| NCC(O)CS(=O)(=O)c1cccs1 (stereo not drawn) | 111 to 113 °C |
| O=C(O)Cc1ccc([N+](=O)[O-])cc1Cl | 157 to 159 °C |
| CC(C)(C)CC(=O)Nc1ccc(Cl)c(C(=O)O)c1 | 214 to 216 °C |
| COc1ccccc1NS(=O)(=O)c1ccc(O)c(N)c1 | 167 to 169 °C |
| Brc1nnc2ccccn12 | 109 to 111 °C |
| CCN(CC)S(=O)(=O)c1ccc(O)c([N+](=O)[O-])c1 | 82 to 84 °C |
| Cc1cnn(CC(=O)O)c1 | 172 to 174 °C |
| O=Cc1ccc(-c2cccc(Cl)c2Cl)o1 | 94 to 98 °C |
| Cc1cnc(C(=O)O)c(C)c1 | 150 to 152 °C |
| Cc1nc(-c2ccc(F)cc2)sc1C(=O)O | 251 to 253 °C |
| Cn1cc(Br)cc1C(=O)NN | 169 to 171 °C |
| Cc1cccc(C)c1OCCO | 70 to 72 °C |
| Cc1c(C(=O)O)oc2c1ccc1ccccc12 | 206 to 208 °C |
| CC1CCC2C(=O)N(C)C(=O)C2C1C(=O)O (stereo not drawn) | 151 to 153 °C |
| COc1ccccc1CC(=O)NN | 112 to 114 °C |
| Cc1ccc(S(=O)(=O)NC2CCCCC2)cc1C(=O)O | 217 to 219 °C |
| O=S(=O)(Cl)c1ccc(Cl)c2ccccc12 | 90 to 92 °C |
| C=CCn1c(SCCCCCCCCCCCC)nc2scc(-c3ccccc3)c2c1=O | 84 to 86 °C |
| O=C(O)/C=C/c1cnn(Cc2ccccc2)c1 | 118 to 120 °C |
| O=C(O)c1ccc(Oc2ccc(Cl)cc2Cl)cc1 | 168 to 170 °C |
| CC(C)N1CCC(N2CCNCC2)CC1 | 46 to 48 °C |

| SMILES | melting point |
| --- | --- |
| COC(=O)c1cc(NS(=O)(=O)c2cccs2)cc(NS(=O)(=O)c2cccs2)c1 | 251 to 253 °C |
| Cc1cc(C(=O)O)nn1-c1ccc(Cl)cc1Cl | 199 to 201 °C |
| ClCc1nnc(-c2ccccc2Cl)o1 | 91 to 93 °C |
| CN1C(=O)CCC(C(=O)O)C1c1ccc(C(F)(F)F)cc1 (stereo not drawn) | 188 to 190 °C |
| CC(CO)N1Cc2cccc(N)c2C1 (stereo not drawn) | 129 to 131 °C |
| CC(C)(C)c1ccc(C2(C(=O)O)CCCC2)cc1 | 189 to 191 °C |
| BrCCOc1ccc2ccccc2c1 | 94 to 96 °C |
| CC(=O)NC1CCN(C(C)C)CC1 | 84 to 86 °C |
| O=C(O)c1oc2ccccc2c1COc1ccccc1 | 163 to 165 °C |
| O=C(Cc1ccc(Br)cc1)Nc1ccsc1C(=O)O | 226 to 228 °C |
| CC(C)C(Br)C(=O)Nc1ccccc1C(F)(F)F (stereo not drawn) | 123 to 125 °C |
| COC(=O)c1cn(CC(=O)O)nn1 | 176 to 178 °C |
| O=C(O)c1ccc(CSc2ccc(Cl)cc2)cc1 | 182 to 184 °C |
| CN(C)S(=O)(=O)c1ccc(N)nc1 | 150 to 152 °C |
| Nc1nonc1C(=O)N1CCOCC1 | 136 to 138 °C |
| Nc1nnc(Cl)c2ccccc12 | 159 to 161 °C |
| Cc1ccc(-c2nn(-c3ccccc3)cc2/C=C(\C#N)C(=O)O)cc1 | 295 to 297 °C |
| N#Cc1cc(Cl)ccc1OCC(F)(F)F | 66 to 68 °C |
| COC(=O)c1sccc1S(N)(=O)=O | 120 to 122 °C |
| CNC(C(N)=O)c1cccc(F)c1 (stereo not drawn) | 153 to 155 °C |
| Fc1ccc(C(c2ccc(F)cc2)N2CCNCC2)cc1 | 89 to 92 °C |
| Cc1cc(-c2nc(C3CC3)no2)ccc1N | 87 to 89 °C |
| O=C1COc2cc(NC(=O)OCC(F)(F)F)c(Cl)cc2N1 | 227 to 229 °C |
| Cc1cc(C)n(CC(=O)NN)n1 | 102 to 104 °C |

| SMILES | melting point |
| --- | --- |
| COc1cc(OC)cc(N2CCC(Br)C2=O)c1 (stereo not drawn) | 78 to 80 °C |
| O=C(Nc1nccs1)C1CCCNC1 (stereo not drawn) | 178 to 180 °C |
| O=C(O)CCC(=O)c1ccc2c(c1)-c1ccccc1C2 | 189 to 191 °C |
| CCc1cc(N)nc(C)n1 | 149 to 151 °C |
| CC(=O)c1ccc(C(F)(F)C(=O)O)n1C | 115 to 117 °C |
| COC(=O)Cc1nnc(N)[nH]1 | 159 to 161 °C |
| O=C1CCC2SCCSC12 (stereo not drawn) | 81 to 83 °C |
| c1nc(N2CCOCC2)c2nc[nH]c2n1 | 301 to 303 °C |
| Ic1ccc(OCCc2ccccc2)cc1 | 64 to 66 °C |
| Cc1oc(-c2ccco2)nc1CC(=O)O | 176 to 178 °C |
| Cc1ccc(Oc2ccc(N)cc2)cc1 | 118 to 122 °C |
| CCCC(NC(N)=O)C(=O)O (stereo not drawn) | 170 to 172 °C |
| CC(C)(C)c1n[nH]cc1C=O | 131 to 133 °C |
| COc1ccc(C)c(N)c1 | 43 to 46 °C |
| CC(=O)N1CCC(CCC(=O)O)CC1 | 119 to 121 °C |
| CN(CC(=O)NC(C)(C)C)CC(N)=S | 123 to 125 °C |
| O=C(O)c1cc(-c2ccc(F)cc2)nc2ccccc12 | 193 to 197 °C |
| N#Cc1ccc(S(=O)(=O)N2CCOCC2)cc1 | 158 to 160 °C |
| O=C(O)c1cc(Cl)c(Cl)cc1C(=O)O | 201 to 203 °C |
| O=C1CCOc2ccc(Br)cc21 | 73 to 75 °C |
| O=Cc1cncc2ccccc12 | 103 to 105 °C |
| N#CCCCS(=O)(=O)c1ccc(C(=O)O)cc1 | 195 to 197 °C |
| CCn1cc(C=O)c2ccccc21 | 104 to 106 °C |
